Results taken from paper PMC3835915, “Diversification of Fungal Specific Class A Glutathione Transferases in Saprotrophic Fungi” (PLoS ONE, 2013).
Read-outs that look alike come from different tables or passages of the source. Each block holds one compound with its values, some of them ahead of it.

How the values were obtained:
CcGSTFuA2461 = biological target: T1, CcGSTFuA2461; experiment: inhibition of MUA esterase activity, fluorescence; type: biochemical, Coprinopsis cinerea; details: competitive vs MUA; no GSH; 30 mM Tris-HCl pH 8; 2 µM enzyme; read-out: PcGSTFuA1 / ANS
T1 construct: gene GSTFuA2461; full length, untagged, pET-3d, E. coli BL21(DE3) pSBET; primers encode N-term MAITFYDL, C-term TGSKL
Source text: inhibition of MUA esterase activity, fluorescence on CcGSTFuA2461

CcGSTFuA6800 = tested on: T2, CcGSTFuA6800; experiment: esterase activity, fluorescence; type: biochemical, Coprinopsis cinerea; details: no GSH
T2 construct: gene GSTFuA6800; full length, untagged, pET-3d, E. coli BL21(DE3) pSBET; primers encode N-term MAIILYDL, C-term YTTVV
Source text: esterase activity, fluorescence on CcGSTFuA6800

CcGSTFuA6801 [1] = biological target: T3, CcGSTFuA6801; experiment: ANS displacement, fluorescence; type: binding, Coprinopsis cinerea; details: TE buffer pH 8.0; 3 µM enzyme; ANS probe; read-out: PcGSTFuA3 / ANS
T3 construct: gene GSTFuA6801; full length, untagged, pET-3d, E. coli BL21(DE3) pSBET; primers encode N-term MAITFYDI, C-term YHTVA
Source text: ANS displacement, fluorescence on CcGSTFuA6801

PcGSTFuA4 = biological target: T4, PcGSTFuA4 (Phanerodontia chrysosporium, UniProt M1NR33); experiment: ANS displacement, fluorescence; type: binding; details: TE buffer pH 8.0; 3 µM enzyme; ANS probe at L-site overlapping G-site
T4 construct: full length, untagged, pET-3d, E. coli BL21(DE3) pSBET; primers encode N-term MADVITLY, C-term AHVDL
T4 sequence (M1NR33 entry or part of it): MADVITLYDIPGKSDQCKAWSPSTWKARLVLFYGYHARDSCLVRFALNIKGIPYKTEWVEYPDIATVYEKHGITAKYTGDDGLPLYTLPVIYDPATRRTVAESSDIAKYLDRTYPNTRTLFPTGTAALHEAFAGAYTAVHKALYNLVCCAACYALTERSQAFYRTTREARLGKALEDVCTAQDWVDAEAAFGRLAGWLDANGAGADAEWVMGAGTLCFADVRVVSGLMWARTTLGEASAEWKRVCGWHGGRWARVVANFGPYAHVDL
Source text: ANS displacement, fluorescence on PcGSTFuA4

PcGSTFuA1 = biological target: T5, PcGSTFuA1 (Phanerodontia chrysosporium, UniProt I6ZUH3); experiment: ANS displacement, fluorescence; type: binding
T5 construct: full length, untagged, pET-3d, E. coli BL21(DE3) pSBET; Ala inserted after Met1; dimer; primers encode N-term MAQPIVF, C-term EQVDV
T5 sequence (I6ZUH3 entry or part of it): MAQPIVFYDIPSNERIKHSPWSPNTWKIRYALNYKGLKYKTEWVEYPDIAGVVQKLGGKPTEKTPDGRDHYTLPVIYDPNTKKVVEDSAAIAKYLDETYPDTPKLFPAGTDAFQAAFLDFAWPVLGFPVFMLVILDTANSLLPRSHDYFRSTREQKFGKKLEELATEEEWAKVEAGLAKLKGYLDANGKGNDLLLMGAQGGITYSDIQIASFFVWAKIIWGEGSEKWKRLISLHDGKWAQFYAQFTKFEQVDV
Source text: ANS displacement, fluorescence on PcGSTFuA1

PcGSTFuA3 [2] = biological target: T6, PcGSTFuA3; experiment: ANS displacement, fluorescence; type: binding, Phanerodontia chrysosporium; details: TE buffer pH 8.0; 3 µM enzyme; ANS probe at L-site overlapping G-site
T6 construct: gene GSTFuA3; full length, untagged, pET-3d, E. coli BL21(DE3) pSBET; Ala inserted after Met1; dimer; primers encode N-term MASLEPII, C-term EFVDV
Source text: ANS displacement, fluorescence on PcGSTFuA3

CcGSTFuA6820 = biological target: T7, CcGSTFuA6820; experiment: inhibition of MUA esterase activity, fluorescence; type: biochemical, Coprinopsis cinerea; details: non-competitive vs MUA; no GSH; 30 mM Tris-HCl pH 8; 2 µM enzyme; read-out: PcGSTFuA4 / ANS
T7 construct: gene GSTFuA6820; full length, untagged, pET-3d, E. coli BL21(DE3) pSBET; primers encode N-term MAITLYDS, C-term YQAVH
Source text: inhibition of MUA esterase activity, fluorescence on CcGSTFuA6820

PcGSTFuA2 [3] = tested on: T8, PcGSTFuA2; experiment: esterase activity, fluorescence; type: biochemical, Phanerodontia chrysosporium; details: no GSH; 30 mM Tris-HCl pH 8
T8 construct: gene GSTFuA2; full length, untagged, pET-3d, E. coli BL21(DE3) pSBET; Ala inserted after Met1; dimer; primers encode N-term MASQPIVF, C-term ERADD
Source text: esterase activity, fluorescence on PcGSTFuA2

PcGSTFuA2 [4] = biological target: T8, PcGSTFuA2; experiment: ANS displacement, fluorescence; type: binding, Phanerodontia chrysosporium; details: TE buffer pH 8.0; 3 µM enzyme; ANS probe at L-site overlapping G-site
Source text: ANS displacement, fluorescence on PcGSTFuA2

PcGSTFuA3 [5] = tested on: T6, PcGSTFuA3; experiment: GSH conjugation, absorbance […] nm; type: biochemical, Phanerodontia chrysosporium; details: 5 mM GSH; pH 6.5; 2% acetonitrile
CcGSTFuA6801 [6] = tested on: T3, CcGSTFuA6801; experiment: GSH conjugation, absorbance […] nm; type: biochemical, Coprinopsis cinerea; details: 5 mM GSH; pH 6.5; 2% acetonitrile

- Ki (CcGSTFuA2461): 287 ± 29.7 µM
Structure (SMILES): O=C(O)c1ccc(Cl)c([N+](=O)[O-])c1 [4-chloro-3-nitrobenzoic acid]

- Km (CcGSTFuA6800; 50 mM phosphate pH 8.0, read-out: CcGSTFuA6800): 0.153 ± 0.023 µM
Structure (SMILES): CC(=O)Oc1ccc2c(c1)Oc1cc(OC(C)=O)ccc1C21OC(=O)c2cc(CCl)ccc21 [CMFDA]

- IC50 (CcGSTFuA6801 [1]): 327 ± 50.6 µM
- IC50 (PcGSTFuA4): 147 ± 5.1 µM
- IC50 (PcGSTFuA1): 62.3 ± 1.2 µM
- IC50 (PcGSTFuA3 [2]): 68.4 ± 25.3 µM
Structure (SMILES): COc1cc(/C=C/C=O)ccc1O [Coniferaldehyde]

Structure (SMILES): O=C(O)c1cc(O)c(O)c(O)c1 [Gallic acid]
- Ki (CcGSTFuA2461): 114 ± 8.9 µM
- Ki (CcGSTFuA6820): 566 ± 16.5 µM

- Km (CcGSTFuA6800; 30 mM Tris-HCl pH 8, read-out: PcGSTFUA2): 25.4 ± 4.37 µM
- Km (PcGSTFuA2 [3]): 23.5 ± 6.2 µM
Structure (SMILES): CC(=O)Oc1ccc2c(C)cc(=O)oc2c1 [MUA]

- IC50 (CcGSTFuA6801 [1]): 276 ± 97.8 µM
- IC50 (PcGSTFuA2 [4]): 89.3 ± 2.8 µM
- IC50 (PcGSTFuA4): 199 ± 25.2 µM
- IC50 (PcGSTFuA1): 62.5 ± 1.6 µM
- Ki (CcGSTFuA6820): 594 ± 37.6 µM
- IC50 (PcGSTFuA3 [2]): 37.2 ± 3.8 µM
Structure (SMILES): COc1cc(C=O)cc(OC)c1O [Syringaldehyde]

- IC50 (PcGSTFuA2 [4]): 84.7 ± 5.2 µM
Structure (SMILES): COc1cc(C=O)ccc1O [Vanillin]

Structure (SMILES): S=C=NCCc1ccccc1 [phenethyl-ITC]
- Km (PcGSTFuA3 [5]): 53.2 ± 5.37 µM
- Km (CcGSTFuA6801 [6]): 41.6 ± 3.73 µM
